# According to patent US8916593B2, “Alkoxy-substituted 2-aminopyridines as ALK inhibitors” (Pfizer Inc., priority 2010, dated 2014):
# Assays:
# cMet enzyme = biological target: T1, cMet enzyme (Homo sapiens, UniProt P08581); experiment: cMet enzymatic activity assay; assay type: biochemical; settings: purified cMet enzyme 7.5 nM, ATP 17 μM (Km)
# T1 construct: RTC Lot#032006
# Experimental: cMet Enzymatic Activity Assay
# Compounds were added at a final concentration of 2% DMSO in half-log dilutions, starting at 20 μM final concentration. The reactions were initiated by addition of 10 μL of peptide/ATP mix to 10 μL enzyme and 5 μL of compound in 384-well plate. […] Substrate and phosphorylated product were separated with an upstream voltage of −2650 V, a downstream voltage of −500V, and a screen pressure of −1.5 psi. The relative peak heights of substrate and product were measured and ratios were calculated using HTS Well Analyzer Software version 5.2.43 from the manufacturer.
# [1] = biological target: T2, human recombinant wild-type ALK kinase domain (amino acids 1093-1411) (Homo sapiens, UniProt Q9UM73); experiment: ALK enzyme assay 2 (microfluidic mobility shift assay); assay type: biochemical;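 also: kinase reaction run 1 h at room temperature, conversion quantified by electrophoretic separation of fluorescent peptide substrate from phosphorylated product, about 15-20% turnover without inhibitor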
# T2 construct: ALK kinase domain (amino acids 1093-1411); made in house
# T2 sequence (Q9UM73 1093-1411): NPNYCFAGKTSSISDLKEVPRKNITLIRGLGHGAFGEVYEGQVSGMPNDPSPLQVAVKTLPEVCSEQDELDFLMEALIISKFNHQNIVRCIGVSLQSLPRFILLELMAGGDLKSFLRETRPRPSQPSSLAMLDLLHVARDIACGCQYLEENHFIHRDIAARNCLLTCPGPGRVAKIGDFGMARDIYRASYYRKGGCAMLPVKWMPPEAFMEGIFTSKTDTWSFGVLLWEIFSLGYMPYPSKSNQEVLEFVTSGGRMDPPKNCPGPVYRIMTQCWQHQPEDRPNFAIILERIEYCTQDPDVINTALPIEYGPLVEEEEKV
# Experimental: The reactions were incubated for 1 h at room temperature, stopped by the addition of 0.1 M EDTA, pH 8, and the extent of reactions (˜15-20% conversion with no inhibitor) was determined after electrophoretic separation of the fluorescently labeled peptide substrate and phosphorylated product on an LabChip EZ Reader II (Caliper Life Sciences, Hopkinton, Mass.).
# [2] = biological target: EML4-ALK wt v1 in NIH-3T3 cells (Homo sapiens, UniProt Q9UM73)
# Chain of EML4-ALK wt v1 in NIH-3T3 cells (Q9UM73 with tags, fused parts or gaps): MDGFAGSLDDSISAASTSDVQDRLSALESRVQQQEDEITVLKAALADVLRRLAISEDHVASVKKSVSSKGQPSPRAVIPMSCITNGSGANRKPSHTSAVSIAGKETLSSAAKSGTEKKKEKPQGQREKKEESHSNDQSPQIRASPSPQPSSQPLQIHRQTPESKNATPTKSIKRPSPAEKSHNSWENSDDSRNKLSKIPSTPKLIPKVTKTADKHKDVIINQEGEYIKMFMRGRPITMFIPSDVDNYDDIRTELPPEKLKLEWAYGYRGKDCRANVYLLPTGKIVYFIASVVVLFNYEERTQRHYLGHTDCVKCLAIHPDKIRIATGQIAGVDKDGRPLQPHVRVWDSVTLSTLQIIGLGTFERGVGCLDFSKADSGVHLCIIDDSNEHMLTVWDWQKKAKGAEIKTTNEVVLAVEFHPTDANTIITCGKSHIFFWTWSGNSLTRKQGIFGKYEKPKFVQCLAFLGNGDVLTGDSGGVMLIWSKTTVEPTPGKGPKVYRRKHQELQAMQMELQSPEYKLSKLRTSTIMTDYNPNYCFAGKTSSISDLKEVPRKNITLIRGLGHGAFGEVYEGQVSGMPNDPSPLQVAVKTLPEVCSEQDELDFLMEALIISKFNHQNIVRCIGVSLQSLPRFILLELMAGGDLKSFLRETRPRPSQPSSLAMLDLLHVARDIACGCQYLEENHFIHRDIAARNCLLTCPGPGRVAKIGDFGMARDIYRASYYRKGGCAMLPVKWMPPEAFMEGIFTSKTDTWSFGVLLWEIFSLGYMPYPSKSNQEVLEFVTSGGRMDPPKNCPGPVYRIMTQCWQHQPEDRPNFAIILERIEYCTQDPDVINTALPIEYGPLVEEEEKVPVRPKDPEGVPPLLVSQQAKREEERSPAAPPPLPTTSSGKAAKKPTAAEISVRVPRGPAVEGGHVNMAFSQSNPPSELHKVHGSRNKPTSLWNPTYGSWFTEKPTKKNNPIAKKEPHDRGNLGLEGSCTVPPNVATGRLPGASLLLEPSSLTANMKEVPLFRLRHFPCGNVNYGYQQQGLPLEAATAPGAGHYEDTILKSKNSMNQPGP
# T1 sequence (P08581 25-1390): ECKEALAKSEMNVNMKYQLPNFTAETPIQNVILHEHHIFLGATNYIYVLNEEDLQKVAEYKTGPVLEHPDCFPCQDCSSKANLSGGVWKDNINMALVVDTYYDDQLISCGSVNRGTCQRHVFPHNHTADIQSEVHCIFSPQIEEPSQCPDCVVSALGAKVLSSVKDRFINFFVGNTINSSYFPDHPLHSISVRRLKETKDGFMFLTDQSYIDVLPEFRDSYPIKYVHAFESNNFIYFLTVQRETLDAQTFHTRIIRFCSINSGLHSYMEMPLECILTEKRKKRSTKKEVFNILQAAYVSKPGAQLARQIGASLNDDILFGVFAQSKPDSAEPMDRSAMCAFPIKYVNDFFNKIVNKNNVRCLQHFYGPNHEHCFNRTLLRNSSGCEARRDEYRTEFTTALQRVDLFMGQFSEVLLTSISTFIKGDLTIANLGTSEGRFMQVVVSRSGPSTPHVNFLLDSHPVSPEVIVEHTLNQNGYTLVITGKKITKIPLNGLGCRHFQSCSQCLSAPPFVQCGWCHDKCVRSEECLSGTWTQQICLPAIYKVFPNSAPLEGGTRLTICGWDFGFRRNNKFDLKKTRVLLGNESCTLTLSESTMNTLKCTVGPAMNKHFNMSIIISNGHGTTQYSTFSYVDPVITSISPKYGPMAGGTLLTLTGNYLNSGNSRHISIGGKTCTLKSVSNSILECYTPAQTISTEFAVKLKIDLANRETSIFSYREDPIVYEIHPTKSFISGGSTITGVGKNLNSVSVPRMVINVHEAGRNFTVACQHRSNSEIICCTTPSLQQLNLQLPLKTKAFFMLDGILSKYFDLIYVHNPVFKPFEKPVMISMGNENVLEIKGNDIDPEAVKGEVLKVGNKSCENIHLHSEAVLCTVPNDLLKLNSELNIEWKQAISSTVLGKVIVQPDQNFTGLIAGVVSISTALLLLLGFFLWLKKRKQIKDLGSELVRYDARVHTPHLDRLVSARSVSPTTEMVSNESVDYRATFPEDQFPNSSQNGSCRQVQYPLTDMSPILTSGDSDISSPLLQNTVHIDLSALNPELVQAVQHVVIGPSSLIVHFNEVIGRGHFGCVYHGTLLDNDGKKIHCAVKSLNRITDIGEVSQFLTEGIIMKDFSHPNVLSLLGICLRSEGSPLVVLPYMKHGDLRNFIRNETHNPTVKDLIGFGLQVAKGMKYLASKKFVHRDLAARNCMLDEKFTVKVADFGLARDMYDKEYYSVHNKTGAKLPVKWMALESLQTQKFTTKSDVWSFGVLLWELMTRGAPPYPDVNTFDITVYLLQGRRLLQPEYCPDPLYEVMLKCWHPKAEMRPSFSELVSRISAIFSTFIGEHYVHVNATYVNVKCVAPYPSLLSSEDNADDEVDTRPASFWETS
IC50 (cMet enzyme) [nM],Ki [1] [nM],IC50 [2] [nM],SMILES
,< 0.2,13.2,"Cc1nn(CC#N)c(C)c1-c1cnc(N)c(O[C@H](C)c2cc(F)ccc2-n2nccn2)c1 [Example 84, [4-(6-amino-5-{(1R)-1-[5-fluoro-2-(2H-1,2,3-triazol-2-yl)phenyl]ethoxy}pyridin-3-yl)-3,5-dimethyl-1H-pyrazol-1-yl]acetonitrile]"
,< 0.2,0.793,"Cc1nn(CC(O)CO)c(C)c1-c1cnc(N)c(O[C@H](C)c2cc(F)ccc2-n2nccn2)c1 (stereo partly drawn) [Example 91, 3-[4-(6-amino-5-{(1R)-1-[5-fluoro-2-(2H-1,2,3-triazol-2-yl)phenyl]ethoxy}pyridin-3-yl)-3,5-dimethyl-1H-pyrazol-1-yl]propane-1,2-diol]"
,0.58,9.15,"C[C@@H](Oc1cc(-c2cnc(CS(C)(=O)=O)s2)cnc1N)c1cc(F)ccc1-n1nccn1 [Example 109, 3-{(1R)-1-[5-fluoro-2-(2H-1,2,3-triazol-2-yl)phenyl]ethoxy}-5-{2-[(methylsulfonyl)methyl]-1,3-thiazol-5-yl}pyridin-2-amine]"
,< 0.2,17.1,"Cc1nc(C(C)O)sc1-c1cnc(N)c(O[C@H](C)c2cc(F)ccc2-n2nccn2)c1 (stereo partly drawn) [Example 96, 1-[5-(6-amino-5-{(1R)-1-[5-fluoro-2-(2H-1,2,3-triazol-2-yl)phenyl]ethoxy}pyridin-3-yl)-4-methyl-1,3-thiazol-2-yl]ethanol]"
,0.327,41.3,"C[C@@H](Oc1cc(-c2cnc(CO)n2C)cnc1N)c1cc(F)ccc1-n1nccn1 [Example 97, [5-(6-amino-5-{(1R)-1-[5-fluoro-2-(2H-1,2,3-triazol-2-yl)phenyl]ethoxy}pyridin-3-yl)-1-methyl-1H-imidazol-2-yl]methanol]"
,1.1,13.2,"C[C@@H](Oc1cc(-c2ccc3c(c2)CCS3(=O)=O)cnc1N)c1cc(F)ccc1-n1nccn1 [Example 99, 5-(1,1-dioxido-2,3-dihydro-1-benzothiophen-5-yl)-3-{(1R)-1-[5-fluoro-2-(2H-1,2,3-triazol-2-yl)phenyl]ethoxy}pyridin-2-amine]"
,4.37,289,"Cc1nc(-c2cnc(N)c(O[C@H](C)c3cc(F)ccc3-n3nccn3)c2)sc1C(C)O (stereo partly drawn) [Example 115, 1-[2-(6-amino-5-{(1R)-1-[5-fluoro-2-(2H-1,2,3-triazol-2-yl)phenyl]ethoxy}pyridin-3-yl)-4-methyl-1,3-thiazol-5-yl]ethanol]"
,0.26,8.6,"COc1ccc(F)cc1C(C)Oc1cc(-c2ccc(CO)c(S(C)(=O)=O)c2)cnc1N (centres unmarked) [Example 136, [4-{6-amino-5-[1-(5-fluoro-2-methoxyphenyl)ethoxy]pyridin-3-yl}-2-(methylsulfonyl)phenyl]methanol]"
,4.1,166,"C[C@@H](Oc1cc(-c2csc(CO)n2)cnc1N)c1cc(F)ccc1-n1nccn1 [Example 105, [4-(6-amino-5-{(1R)-1-[5-fluoro-2-(2H-1,2,3-triazol-2-yl)phenyl]ethoxy}pyridin-3-yl)-1,3-thiazol-2-yl]methanol]"
,< 0.2,15.5,"CC1CNc2ncc(-c3cnc(N)c(O[C@H](C)c4cc(F)ccc4-n4nccn4)c3)cc2O1 (stereo partly drawn) [Example 79, 3-{(1R)-1-[5-fluoro-2-(2H-1,2,3-triazol-2-yl)phenyl]ethoxy}-5-(2-methyl-3,4-dihydro-2H-pyrido[3,2-b][1,4]oxazin-7-yl)pyridin-2-amine]"
,< 0.2,4.17,"C[C@@H](Oc1cc(-c2c[nH]nc2C#N)cnc1N)c1cc(F)ccc1-n1nccn1 [Example 116, 4-(6-amino-5-{(1R)-1-[5-fluoro-2-(2H-1,2,3-triazol-2-yl)phenyl]ethoxy}pyridin-3-yl)-1H-pyrazole-3-carbonitrile]"
,7.2,729,"CNC(=O)c1ncc(-c2cnc(N)c(O[C@H](C)c3cc(F)ccc3-n3nccn3)c2)cn1 [Example 92, 5-(6-amino-5-{(1R)-1-[5-fluoro-2-(2H-1,2,3-triazol-2-yl)phenyl]ethoxy}pyridin-3-yl)-N-methylpyrimidine-2-carboxamide]"
,< 0.2,2.04,"Cc1nn(C2CCNCC2)cc1-c1cnc(N)c(O[C@H](C)c2cc(F)ccc2-n2nccn2)c1 [Example 124, 3-{(1R)-1-[5-fluoro-2-(2H-1,2,3-triazol-2-yl)phenyl]ethoxy}-5-[3-methyl-1-(piperidin-4-yl)-1H-pyrazol-4-yl]pyridin-2-amine]"
,0.26,2.25,"C[C@@H](Oc1cc(-c2ccnc(N3CC(O)C3)c2F)cnc1N)c1cc(F)ccc1-n1nccn1 [Example 130, 1-(6-amino-3′-fluoro-5-{(1R)-1-[5-fluoro-2-(2H-1,2,3-triazol-2-yl)phenyl]ethoxy}-3,4′-bipyridin-2′-yl)azetidin-3-ol]"

# The remaining lines, values behind:
SMILES,IC50 (cMet enzyme) [nM],Ki [1] [nM],IC50 [2] [nM]
"Cc1n[nH]cc1-c1cnc(N)c(O[C@H](C)c2cc(F)ccc2C#N)c1 [Example 40, 2-[(1R)-1-{[2-amino-5-(3-methyl-1H-pyrazol-4-yl)pyridin-3-yl]oxy}ethyl]-4-fluorobenzonitrile]",1350,,
"Cc1n[nH]cc1-c1cnc(N)c(OC(C)c2cc(F)ccc2-n2nccn2)c1 (centres unmarked) [Example 39, 3-{1-[5-fluoro-2-(2H-1,2,3-triazol-2-yl)phenyl]-ethoxy}-5-(3-methyl-1H-pyrazol-4-yl)pyridin-2-amine]",4500,,
"CC(Oc1cc(-c2ccnn2C)cnc1N)c1cc(F)ccc1-n1nccn1 (centres unmarked) [Example 31, 3-{1-[5-fluoro-2-(2H-1,2,3-triazol-2-yl)phenyl]-ethoxy)-5-(1-methyl-1H-pyrazol-5-yl)pyridin-2-amine]",13000,,
"C[C@@H](Oc1cc(-c2ccnn2C)cnc1N)c1cc(F)ccc1-n1nccn1 [Example 30, 3-{(1R)-1-[5-fluoro-2-(2H-1,2,3-triazol-2-yl)phenyl]ethoxy}-5-(1-methyl-1H-pyrazol-5-yl)pyridin-2-amine]",6110,,
"Cc1n[nH]cc1-c1cnc(N)c(OC(C)c2cc(F)ccc2C#N)c1 (centres unmarked) [Example 38, 2-(1-{[2-amino-5-(3-methyl-1H-pyrazol-4-yl)pyridin-3-yl]oxy}ethyl)-4-fluorobenzonitrile]",4050,,
"CC(Oc1cc(-c2ccnn2C)cnc1N)c1cc(F)ccc1-c1nccn1C (centres unmarked) [Example 63, 3-{1-[5-Fluoro-2-(1-methyl-1H-imidazol-2-yl)-phenyl]ethoxy}-5-(2-methyl-2H-pyrazol-3-yl)-pyridin-2-ylamine]",,67,2350
"C[C@@H](Oc1nc(-c2cnn(C3CCNCC3)c2)cnc1N)c1cc(F)ccc1-n1nccn1 [Example 71, 3-{(1R)-1-[5-fluoro-2-(2H-1,2,3-triazol-2-yl)phenyl]ethoxy}-5-[1-(piperidin-4-yl)-1H-pyrazol-4-yl]pyrazin-2-amine]",,< 0.2,30.3
"COc1ccc(F)cc1[C@@H](C)Oc1nc(-c2ccc([C@H](C)N)cc2)cnc1N [Example 68, 5-{4-[(1S)-1-aminoethyl]phenyl}-3-[(1R)-1-(5-fluoro-2-methoxyphenyl)eth-oxy]pyrazin-2-amine]",,< 0.2,4.5
"C[C@@H](Oc1nc(-c2ccc(C(N)=O)nc2)cnc1N)c1cc(F)ccc1-n1nccn1 [Example 64, 5-(5-amino-6-{(1R)-1-[5-fluoro-2-(2H-1,2,3-triazol-2-yl)phenyl]ethoxy}pyrazin-2-yl)pyridine-2-carboxamide]",,2.4,123
